In one data set the test system is ulcers. Kind of data set: gastrolesivity, ulcers after oral administration in the rat. Type of data set: in vivo. The following applies: equimolar doses. An excerpt: (§1) Other toxicological features of the compound 5 have been also studied, more particularly the histolesivity (intramuscular injection in the sacrospinalis muscle of rabbit) and the gastrolesivity (ulcers after oral administration in the rat).

Data set [1] in a line: plasma levels of diflunisal after oral administration in the rat (pharmacokinetics). Format: in vivo. The following applies: 40 umol/kg, oral dose 0.04 mmol/kg. An excerpt: Lastly, some pharmacokinetic properties of the compound 5 have been investigated, by measuring the plasma levels of diflunisal after oral administration of 0.04 mmol/kg p.o. in the rat, this dose being close to the therapeutical one. [table]

For data set [2], the system named is phenylquinone induced writhing. The data set is described as follows: phenylquinone induced writhing in the mouse (analgesic activity). Format: in vivo. The following applies: 10 animals. The source says: (§2) The pharmaco-toxicological properties of the compounds '1 have been studied in comparison with diflunisal and with N-acetylcysteine, in order to evaluate the pharmacological and toxicological properties of the compounds of the invention with respect to those of the starting compounds. The results relating to the compound 5 (see scheme I) are hereinafter reported, only for illustrative and not for limiting purpose.

In the next data set the test system is sacrospinalis muscle. The data set is described as follows: histolesivity, intramuscular injection in the sacrospinalis muscle of rabbit. Type of data set: in vivo. The following applies: equimolar doses.
Text: as §1

For data set [3], the system named is carrageen induced paw oedema. The data set is described as follows: carrageen induced paw oedema in the rat (anti-inflammatory activity). The following applies: administered 1h before the carrageen, 10 animals. Type of data set: in vivo.
Text: as §2

Data set [4] is described as follows: water solubility (observation at preparation). Type of data set: physicochemical. The procedure:
3.95 g of S-[2',4'-difluoro-4-hydroxy-(1,1'-diphenyl)-3-carbonyl]-N-acetyl-L-cysteine (5) are added with 2.92 g of lysine base as a 50% aqueous solution, 8 ml of water and 20 ml of acetone; the mixture is stirred until a clear solution is obtained and filtered. Under stirring the mixture is diluted up to 100 ml with acetone, cooled to -10°C for a night, filtered and dried in a stove at 50-60°C under vacuum. A white, water soluble product is obtained having melting point of 179-184°C, with a yield of 92%.

The structures appear in SMILES notation. Structures can show the parent of a compound that is named as a salt.

In the case of `O=C(O)c1cc(-c2ccc(F)cc2F)ccc1O` [Diflunisal, 2',4'-difluoro-4-hydroxy-(1,1'-diphenyl)-3-carboxylic acid], the gastrolesivity entry in the data set with ulcers is recorded as “high”. Further, the peak concentration (Cmax) in data set [1] amounted to 39700 ng/mL. For the same compound, the AUC(0-inf) in data set [1] (read-out: o → oo) was determined as 345 µg·h/mL. In data set [1] (read-out: tC max), the Tmax turned out to be 3 h. The half-life in data set [1] (read-out: t½ (converted)) was 4.2 h. The “INIBITION % (medium value ± s.e.) analgesic activity (b)” value was 9.5 ± 6.2% in data set [2] (0.040 mmol kg^-1 p.o.), 16.6 ± 15.9% in data set [2] (0.120 mmol kg^-1 p.o.) and 39.6 ± 9.8% in data set [2] (0.400 mmol kg^-1 p.o.). For the same compound, the histolesivity entry with sacrospinalis muscle was “high”. The “INIBITION % (medium value ± s.e.) anti-inflammatory activity (a)” value in data set [3] (0.040 mmol kg^-1 p.o.) was 29.6 ± 5.4%; in data set [3] (0.120 mmol kg^-1 p.o.) it was 50.3 ± 2.0%; in data set [3] (0.400 mmol kg^-1 p.o.), 53.9 ± 4.7%.

For the compound `CC(=O)N[C@@H](CSC(=O)c1cc(-c2ccc(F)cc2F)ccc1O)C(=O)O` [Example 8, S-/ 2',4'-difluoro-4-hydroxy-(1,1'-diphenyl)-3-carbonyl]-N-acetyl-L-cysteine lysine salt], the solubility in water entry in data set [4] was “water soluble”.

The record behind these values is patent EP0144519A1, “2',4'-Difluoro-4-hydroxy-(1,1'-diphenyl)-3-carboxylic derivatives of N-acetylcysteine and of S-carboxymethylcysteine having anti-inflammatory and mucolytic activity, process for their preparation and related pharmaceutical compositions” (priority 1983, dated 1985).
